Measured values published in EP0973746B1, “SUBSTITUTED 3-CYANO QUINOLINES” (Wyeth Holdings Corporation, priority 1997, dated 1998).
≈ marks a conversion by molar mass, not a printed value. Where “and” joins values, the source holds several entries; their conditions need not be identical. Equal values may be shown once. Read-outs that look alike come from different tables or passages of the source.

Legend:
A2780DDP = test: Inhibition of cancer cell growth as measured by cell number, A2780DDP; format: cell-based; details: Homo sapiens, 48 h, read-out: IC50 A2780DDP
HL60 = test: Inhibition of cancer cell growth as measured by cell number, HL60; format: cell-based; details: Homo sapiens, HL-60, 48 h, read-out: IC50 HL60
LNCAP = test: Inhibition of cancer cell growth as measured by cell number, LNCAP; format: cell-based; details: Homo sapiens, 48 h, read-out: IC50 LNCAP
LOX = test: Inhibition of cancer cell growth as measured by cell number, LOX; format: cell-based, human; details: Homo sapiens, LOX, 48 h, read-out: IC50 LOX, cell number, Sulforhodamine B, 48 hours exposure;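 also: LOX cells served as a line with low or absent EGFR and HER2/neu expression, in contrast to receptor-overexpressing lines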
From the text: (§1) The cell lines were chosen since they overexpressed epidermal growth factor receptor (EGFR) (i.e. A431) or HER2/neu (SKBR3), or had little to no expression of the these receptors (SW620, LOX, MCF7).

CCL228 = test: Inhibition of cancer cell growth as measured by cell number, CCL228; format: cell-based; details: Homo sapiens, 48 h, read-out: IC50 CCL228
SW948 = test: Inhibition of cancer cell growth as measured by cell number, SW948; format: cell-based; details: Homo sapiens, SW948, 48 h, read-out: IC50 SW948
CX1 = test: Inhibition of cancer cell growth as measured by cell number, CX1; format: cell-based; details: Homo sapiens, CX-1, 48 h, read-out: IC50 CX1
LX1 = test: Inhibition of cancer cell growth as measured by cell number, LX1; format: cell-based; details: Homo sapiens, LX-1, 48 h, read-out: IC50 LX1
DU145 = test: Inhibition of cancer cell growth as measured by cell number, DU145; format: cell-based; details: Homo sapiens, DU-145, 48 h, read-out: IC50 DU145
COLO205 = test: Inhibition of cancer cell growth as measured by cell number, COLO205; format: cell-based; details: Homo sapiens, COLO 205, 48 h, read-out: IC50 COLO205
SW620 = test: Inhibition of cancer cell growth as measured by cell number, SW620; format: cell-based, human; details: Homo sapiens, SW-620, 48 h, read-out: IC50 SW620, cell number, Sulforhodamine B, 48 hours exposure;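 also: SW620 was included as a cell line with little or no EGFR or HER2/neu expression, in contrast to receptor-overexpressing lines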
From the text: as §1

LS174T = test: Inhibition of cancer cell growth as measured by cell number, LS174T; format: cell-based; details: Homo sapiens, 48 h, read-out: IC50 LS174T
MCF7 = test: Inhibition of cancer cell growth as measured by cell number, MCF7; format: cell-based, human; details: Homo sapiens, MCF7, 48 h, read-out: IC50 MCF7, cell number, Sulforhodamine B, 48 hours exposure;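 also: MCF7 was included as a line with little or no EGFR or HER2/neu expression, in contrast to the receptor-overexpressing lines of the panel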
From the text: as §1

T47D = test: Inhibition of cancer cell growth as measured by cell number, T47D; format: cell-based; details: Homo sapiens, 48 h, read-out: IC50 T47D
B7474 = test: Inhibition of cancer cell growth as measured by cell number, B7474; format: cell-based; details: Homo sapiens, 48 h, read-out: IC50 B7474
SKBR3 = test: Inhibition of cancer cell growth as measured by cell number, SKBR3; format: cell-based, human; details: Homo sapiens, SK-BR-3, 48 h, read-out: IC50 SKBR3, cell number, Sulforhodamine B, 48 hours exposure;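 also: SK-BR-3 cells were selected as a line overexpressing HER2/neu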
From the text: as §1

[1] = biological target: recombinant human MEK 1 (MAPKK) and recombinant human ERK2 (MAPK); test: Mitogen Activated Protein Kinase (MAPK) assay, two component coupled MEK 1 / ERK2; format: biochemical; details: separate entries for the same compound = evaluated more than one time;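 also: MEK 1-activated ERK2 phosphorylates MBP or Myc peptide with 33P-ATP, filter capture and scintillation counting, inhibitor preincubated with ERK2 30 min at 0 °C, inhibition relative to uninhibited control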
Method: To evaluate inhibitors of the MAP (mitogen activated protein) kinase a two component coupled standard pharmacological test procedure, which measures phosphorylation of a serine/threonine residue in an appropriate sequence in the substrate in the presence and absence of a putative inhibitor, was used. Recombinant human MEK 1 (MAPKK) was first used to activate recombinant human ERK2 (MAPK) and the activated MAPK (ERK) was incubated with substrate (MBP peptide or MYC peptide) in the presence of ATP, Mg^+2 and radiolabeled ^33P ATP. The phosphorylated peptide was captured on a P 81 phosphocellulose filter (paper filter or embedded in microtiter plate) washed and counted by scintillation methods.
The peptide substrates used in the assay are MBP, peptide substrate ([sequence]), or synthetic Myc substrate, ([sequence]•5 TFA. The recombinant enzymes used were prepared as GST fusion proteins of human ERK 2 and human MEK 1. Inhibitor samples were prepared as 10X stocks in 10% DMSO and an appropriate aliquot was used to deliver either 10 ug/ml for a single point screening dose or 100, 10, 1, and 0.1 uM final concentration for a dose response curve. Final DMSO concentrations were less than or equal to 1%.
The reaction was run as follows in 50 mM Tris kinase buffer, pH 7.4 in a reaction volume of 50 ul. The appropriate volume of kinase buffer and inhibitor sample was added to the tube. Appropriate dilution of enzyme was delivered to give 2-5 ug recombinant MAPK (Erk ) per tube. The inhibitor was incubated with MAPK (Erk) for 30 min at 0 deg. […] Recombinant Mek (MAPKK) ( 0.5-2.5 ug) or fully activated Mek (0.05-0.1 units) was added to activate the Erk and incubated for 30 min at 30° C. […] Samples were incubated at 30°C for 30 minutes and the reaction was stopped by adding 25 µl of ice cold 10 %TCA .After samples were chilled on ice for 30 min, 20 µl of sample was transferred onto P 81 phosphocellulose filter paper or appropriate MTP with embedded P 81 filter. Filter papers or MTP were washed 2 times with a large volume of 1% acetic acid, then 2 times with water. The filters or MTP were briefly air dried before addition of scintillant and samples were counted in the appropriate scintillation counter set up for reading ^33P isotope.
The raw data was captured as cpm. Sample replicates were averaged and corrected for background count. Mean cpm data was tabulated by group and % inhibition by a test compound was calculated as (corrected cpm control- corrected. cpm sample/control) X 100 = % inhibition.

A549 = test: Inhibition of cancer cell growth as measured by cell number, A549; format: cell-based; details: Homo sapiens, A549, 48 h, read-out: IC50 A549
[2] = test system: human epidermoid tumors (A431); test: In vivo inhibition of the growth of human epidermoid tumors (A431); details: for S/T = No. Survivors/No. Treated: Day +28 post tumor staging; for tumor growth was inhibited: 100 mg/kg administered i.p. during days 1-10
Method in brief: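 Female BALB/c nu/nu mice from Charles River were injected subcutaneously with 5 X 10^6 human epidermoid (A431) tumor cells. Once tumors weighed 100 to 150 mg, animals were randomized into treatment groups on day zero, and untreated controls were included. Tumor mass, calculated as (length X width^2)/2, was measured every 7 days for 28 days after staging. Relative growth was mean mass on days 7, 14, 21 and 28 divided by the day-zero mean.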

MIP = test: Inhibition of cancer cell growth as measured by cell number, MIP; format: cell-based; details: Homo sapiens; cell number, Sulforhodamine B, 48 hours exposure; Table 4; read-out: IC50 MIP
NHEK = test: Inhibition of cell growth by incorporation of [3H]-thymidine, NHEK; format: cell-based, human; details: Homo sapiens, read-out: IC50 NHEK
CCRF-CFM = test: Inhibition of cancer cell growth as measured by cell number, CCRF-CFM; format: cell-based; details: Homo sapiens, 48 h, read-out: IC50 CCRF-CFM
CACO2 = test: Inhibition of cancer cell growth as measured by cell number, CACO2; format: cell-based; details: Homo sapiens, Caco-2, 48 h, read-out: IC50 CACO2
[3] = biological target: epidermal growth factor receptor kinase (Homo sapiens, UniProt P00533); test: biochemical
Chain of epidermal growth factor receptor kinase (P00533 25-1210): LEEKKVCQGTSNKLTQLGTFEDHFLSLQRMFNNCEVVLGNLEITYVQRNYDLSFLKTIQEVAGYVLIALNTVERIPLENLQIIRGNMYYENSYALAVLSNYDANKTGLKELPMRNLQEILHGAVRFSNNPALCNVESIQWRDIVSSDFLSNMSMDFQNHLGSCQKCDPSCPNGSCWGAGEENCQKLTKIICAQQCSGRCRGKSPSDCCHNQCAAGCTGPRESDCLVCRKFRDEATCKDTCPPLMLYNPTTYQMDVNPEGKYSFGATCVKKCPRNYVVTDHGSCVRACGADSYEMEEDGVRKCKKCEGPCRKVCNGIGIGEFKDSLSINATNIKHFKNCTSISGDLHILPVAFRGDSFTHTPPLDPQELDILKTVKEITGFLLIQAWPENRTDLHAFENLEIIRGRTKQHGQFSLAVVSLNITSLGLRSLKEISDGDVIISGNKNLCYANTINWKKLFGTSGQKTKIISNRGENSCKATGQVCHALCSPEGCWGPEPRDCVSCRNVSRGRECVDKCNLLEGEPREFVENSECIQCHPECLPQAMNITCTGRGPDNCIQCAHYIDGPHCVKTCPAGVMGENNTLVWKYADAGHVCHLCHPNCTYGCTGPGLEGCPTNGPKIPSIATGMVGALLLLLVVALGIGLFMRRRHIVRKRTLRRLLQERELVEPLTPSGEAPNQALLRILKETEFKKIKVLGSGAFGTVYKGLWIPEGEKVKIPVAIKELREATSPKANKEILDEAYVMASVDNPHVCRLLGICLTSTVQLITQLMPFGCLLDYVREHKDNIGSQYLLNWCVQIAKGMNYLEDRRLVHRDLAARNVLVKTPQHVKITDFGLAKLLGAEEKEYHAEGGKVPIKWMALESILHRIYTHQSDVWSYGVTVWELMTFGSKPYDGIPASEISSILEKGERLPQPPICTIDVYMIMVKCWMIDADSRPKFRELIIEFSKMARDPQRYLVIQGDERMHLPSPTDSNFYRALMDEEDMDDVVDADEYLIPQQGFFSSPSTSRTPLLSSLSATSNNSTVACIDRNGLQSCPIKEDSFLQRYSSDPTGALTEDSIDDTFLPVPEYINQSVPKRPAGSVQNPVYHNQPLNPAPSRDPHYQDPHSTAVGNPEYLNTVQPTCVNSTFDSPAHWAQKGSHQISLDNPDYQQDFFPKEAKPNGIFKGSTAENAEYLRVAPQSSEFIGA

A431 [4] = test: Inhibition of cell growth by incorporation of [3H]-thymidine, A431; format: cell-based, human; details: Homo sapiens, A-431, read-out: IC50 A431
HCT15 = test: Inhibition of cancer cell growth as measured by cell number, HCT15; format: cell-based; details: Homo sapiens, HCT-15, 48 h, read-out: IC50 HCT15
A431 [5] = test: Inhibition of cancer cell growth as measured by cell number, A431; format: cell-based, human; details: Homo sapiens, A-431, 48 h, read-out: IC50 A431, cell number, Sulforhodamine B, 48 hours exposure;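 also: human A431 line, picked because it overexpresses epidermal growth factor receptor (EGFR)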
From the text: as §1

NEC = test: Inhibition of cancer cell growth as measured by cell number, NEC; format: cell-based; details: Homo sapiens, 48 h, read-out: IC50 NEC
A27805 = test: Inhibition of cancer cell growth as measured by cell number, A27805; format: cell-based; details: Homo sapiens, 48 h, read-out: IC50 A27805
[6] = 10 mg/kg/dose IP on days 1 through 10
[7] = 50 mg/kg/dose IP on days 1 through 10
[8] = 100 mg/kg/dose IP on days 1 through 10

CCOc1cc2ncc(C#N)c(Nc3cccc(Br)c3)c2cc1OCC [Example 47, 4-[(3-Bromophenyl)amino]6,7-diethoxy-3-quinolinecarbonitrile]
IC50 (A2780DDP): 0.0645 µg/mL (≈ 0.157 µM)
IC50 (HL60): 0.0625 µg/mL (≈ 0.152 µM)
IC50 (LNCAP): 0.0337 µg/mL (≈ 0.0816 µM)
IC50 (LOX; Table 6): 0.0605 µg/mL (≈ 0.147 µM)
IC50 (LOX; Table 8): 0.03 µg/mL (≈ 0.0728 µM)
IC50 (CCL228): 0.0715 µg/mL (≈ 0.174 µM)
IC50 (SW948): 0.0683 µg/mL (≈ 0.166 µM)
IC50 (CX1): 0.0618 µg/mL (≈ 0.15 µM)
IC50 (LX1): 0.076 µg/mL (≈ 0.184 µM)
IC50 (DU145): 0.068 µg/mL (≈ 0.165 µM)
IC50 (COLO205): 0.0757 µg/mL (≈ 0.184 µM)
IC50 (SW620; Table 4): 0.0672 µg/mL (≈ 0.163 µM)
IC50 (SW620; Table 8): < 0.01 µg/mL
IC50 (LS174T): 0.0468 µg/mL (≈ 0.114 µM)
IC50 (MCF7; Table 5): 0.072 µg/mL (≈ 0.175 µM)
IC50 (MCF7; Table 8): 0.02 µg/mL (≈ 0.0485 µM)
IC50 (T47D): 0.0467 µg/mL (≈ 0.113 µM)
IC50 (B7474): 0.233 µg/mL (≈ 0.566 µM)
IC50 (SKBR3; Table 7): 0.0467 µg/mL (≈ 0.113 µM)
IC50 (SKBR3; Table 8): < 0.01 µg/mL
IC50 [1]: 8000 nM and 5000 nM
IC50 (A549): 0.0679 µg/mL (≈ 0.165 µM)
%T/C Day 7 [2, 6]: 69%
%T/C Day 14 [2, 6]: 74%
%T/C Day 21 [2, 6]: 116%
%T/C Day 28 [2, 6]: 136%
S/T = No. Survivors/No. Treated [2, 6]: 5/5
%T/C Day 7 [2, 7]: 44 (d) %
%T/C Day 14 [2, 7]: 55 (d) %
%T/C Day 21 [2, 7]: 87%
%T/C Day 28 [2, 7]: 102%
S/T = No. Survivors/No. Treated [2, 7]: 5/5
tumor growth was inhibited ([2]; day 7): 66%
tumor growth was inhibited ([2]; day 14): 63%
tumor growth was inhibited ([2]; day 28): 57%
%T/C Day 7 [2, 8]: 34(d) %
%T/C Day 14 [2, 8]: 37(d) %
%T/C Day 21 [2, 8]: 51%
%T/C Day 28 [2, 8]: 43%
S/T = No. Survivors/No. Treated [2, 8]: 5/5
IC50 (MIP): 0.0693 µg/mL (≈ 0.168 µM)
IC50 (NHEK): 30 nM
IC50 (CCRF-CFM): 0.068 µg/mL (≈ 0.165 µM)
IC50 (CACO2): 0.0701 µg/mL (≈ 0.17 µM)
IC50 [3]: 130 nM
IC50 (A431 [4]): 1500 nM
IC50 (HCT15): 0.0395 µg/mL (≈ 0.0959 µM)
IC50 (A431 [5]; Table 6): 0.0446 µg/mL (≈ 0.108 µM)
IC50 (A431 [5]; Table 8): < 0.01 µg/mL
IC50 (NEC): 0.0671 µg/mL (≈ 0.163 µM)
IC50 (A27805): 0.053 µg/mL (≈ 0.129 µM)
